# Experimental data as given in patent publication US20180036270A1, “A METHOD OF PROTECTING AGAINST CARBONYL STRESS INDUCED ISCHEMIA-REPERFUSION INJURY IN THE DIABETIC BRAIN VIA ADMINISTRATION OF N-ACETYLCYSTEINE” (Board of Supervisors of Louisiana State University and …, priority 2015, published 2018).
# “Also recorded” adds a separate entry of the source.
# What was measured:
# [1] = tested on: cerebral microvessels of STZ diabetic mice; assay: Light-dye induced thrombosis in cerebral arterioles and venules of STZ diabetic mice; format: in vivo, mouse
# [2] = tested on: STZ diabetic mice; assay: Tail bleed time as measure of coagulation; format: in vivo, mouse; conditions: 20 week diabetic mice; NAC 2 mM in drinking water for 3 weeks
# Method: Turning to FIG. 24, as a measure of coagulation, tail bleed time was determined in animals that were diabetic for 20 weeks.
# [3] = tested on: blood-brain barrier (BBB); assay: Blood-brain barrier permeability by Evans Blue extrusion; format: in vivo, mouse; conditions: STZ mice, NAC 3 weeks
# [4] = tested on: diabetic mice with transient ischemic attacks; assay: Thrombosis after transient ischemic attack (TIA) in diabetic mice; format: in vivo, mouse; conditions: diabetes+TIA mice given NAC
# [5] = tested on: brain MG contents; assay: Brain MG by HPLC; format: in vivo, mouse; conditions: STZ diabetic mice, NAC 3 weeks
# Method: Tissue contents of MG were also determined by HPLC. The brain tissues were homogenized in the same manner as that for GSH measurement. Homogenates (581 μl) were incubated with 19 μl of 60% perchloric acid at room temperature for 24 h and then centrifuged at 12000 rpm at 4° C. for 10 min. The supernatants were derivatized with 0.1M of o-phenylenediamine for 24 h to produce 2-methylquinoxaline. On the third day, the supernatants were used for measurements of MG contents. Separation of MG derivatives, whose peak was detected at 315 nm wavelength, was performed on a 250×4.6-mm Chromegabond Ultra C-18 reversed phase HPLC column. The contents were quantified using MG standards derivatized with o-phenylenediamine. MG contents were normalized to protein concentrations and expressed as nanomoles per mg protein.
# [6] = tested on: MG-protein adducts, occludin, GCLc in diabetic mouse brain; assay: Western blot of MG-protein adducts, occludin, GCLc and occludin glycation in brain; format: in vivo; conditions: STZ mice, NAC 3 weeks
# Method: Representative immunoblots are shown. The bar graphs show the quantitation of the protein band intensities normalized to β-actin; n=5/grp. […] Brain tissues were homogenized with RIPA lysis buffer containing 50 mM Tris, pH 8.0, 150 mM sodium chloride, 0.5% sodium deoxycholate, 0.1% SDS and protease inhibitor cocktail. Total protein (20 μg) per sample was loaded on 10% SDS-polyacrylamide gels. Electrophoresis was performed at 150V for 1 h, and transfer onto PVDF membranes at 100 V for 1 h. The membranes were blocked in 5% nonfat milk in TBST buffer containing 20 mM Tris, 137 mM NaCl, 0.1% Tween20, pH 7.6 for 40 min at room temperature followed by overnight incubation with either rabbit-anti-mouse occludin polyclonal antibody (1:2000), rabbit-anti-mouse GCGc polyclonal antibody (1:2000) or mouse anti-MG monoclonal antibody (1:2000) at 4° C. on an agitator. The second day, the PVDF membranes were incubated with HRP-conjugated goat-anti-rabbit or sheep-anti-mouse secondary antibody (1:10000) for 2 h at room temperature. Protein expression was detected using enhanced chemiluminescence (BIO-RAD) according to the manufacturer's instructions. The membranes were stripped and reprobed with anti-mouse actin monoclonal antibody (1:5000) to verify equal protein loading.
# [7] = tested on: brain GSH and cysteine contents; assay: Brain GSH and cysteine by HPLC; format: in vivo, mouse
# Source text: Four-week-old male C57BL/6J mice, weighing 18-20 g, were purchased from Jackson Laboratory. These mice were maintained at the Animal Facility of the Louisiana State University Health Sciences Center—Shreveport. Animal care and use in the experiments follow the guidelines in the Guide for the Care and Use of Laboratory Animals, published by the US National Institutes of Health. Following adaptation for 1 week, the mice were divided randomly into 4 groups: non-treated sham operation group (NT-sham group, n=6), non-treated I/R group (NT-I/R group, n=5), vehicle I/R group (Veh-I/R group, n=24), and streptozotocin I/R group (STZ-I/R group, n=19). […] On day 7, mice whose plasma glucose was more than 300 mg/dl were deemed to be diabetic. From diabetes onset at week 1, a group of diabetic mice were given 0.2 mM NAC in the drinking water for 3 weeks (n=3; a total of 4 weeks diabetes, 3 weeks NAC) or 1 week (n=9; a total of 2 weeks diabetes, 1 week NAC). Veh-I/R mice were injected with citrate buffer for consecutive 5 days, and a group of Veh-treated mice were given 0.2 mM NAC for 2 weeks in the drinking water before the ischemia operation (Veh+NAC group, n=8). Another Veh-treated mice were injected (intraperitoneally, 12 hr interval) with 0.5M BSO 24 h before the ischemia operation and during the 24 h reperfusion period (Veh+BSO group, n=10). All mice were 9 weeks old at sacrifice.
# Tissue contents of GSH, cysteine and γGC were determined by high-performance liquid chromatography (HPLC). […] Separation of GSH, cysteine and γGC derivatives whose peaks were detected at 365 nm wavelength was performed on a 250×4.6-mm Alltech Lichrosorb NH2 10 μm anion-exchange column. GSH, cysteine and γGC contents were quantified by comparison to standards derivatized in the same manner. Protein pellets were dissolved in 1 M NaOH for protein quantitation and GSH, cysteine and γGC concentrations were expressed as nanomoles per mg protein.
structure (smiles),measurement,setting,value
"CC(=O)N[C@@H](CS)C(=O)O [NAC, N-acetylcysteine]",thrombosis onset and cessation times in cerebral venules and arterioles,"[1]; 6 and 20 week diabetic mice, NAC 2 mM in drinking water for 3 weeks",provided protection against the accelerated thrombosis in both types of vessels
same,time to onset of thrombosis in brain microvessels,"[1]; 20 week diabetic mice, NAC 2 mM in drinking water for 1 week",decreases the accelerated onset of thrombosis
same,tail bleed time,[2],prevented this accelerated coagulation; also recorded: reversed
same,leakage of Evans Blue (BBB permeability),[3],significantly decreased
same,thrombosis time,[4],some improvement
same,MG-to-GSH ratio,[5],significantly decreased
same,brain MG levels,[5],"a trend for decreased MG, but not significant; also recorded: remained high, although trending lower; also recorded: attenuated"
same,MG-adduct formation in brain,[6],significantly decreased
same,occludin glycation in brain (immunoprecipitation),[6],significantly decreased
same,total protein expression of GCLc,[6],does not alter
same,total protein expression of occludin,[6],does not alter
same,brain GSH concentrations,"[7]; STZ diabetic mice, NAC in drinking water 1 or 3 weeks",significant increases in tissue GSH levels; also recorded: significantly higher; also recorded: increased
same,brain cysteine levels,[7]; vehicle and STZ diabetic mice given NAC,significant decrease; also recorded: significantly decreased
